Structures can show the parent of a compound that is named as a salt. Where two headings read alike, the source gives them in different places.
Assays:
[1] = molecular target: muscarinic cholinergic receptors; type: binding; conditions: rat brain homogenate, [3H]QNB, 25° C., pH 7.4; for IC50: read-out: MRBA IC50; for MRBA percent inhibition of total specific binding: concentration not given
brain dopamine receptors = experiment: Haloperidol receptor binding assay (HRBA), inhibition of 3H-haloperidol binding; conditions: rat corpus striatum, 0.6 nM 3H-haloperidol; for IC50: pH 7.7; for HRBA percent inhibition: 1 nM and 10 nM of test drug in primary screen, concentration per value not given
[2] = system: apomorphine-induced emesis in dogs; experiment: Apomorphine emesis assay; type: in vivo, dog; conditions: Canis lupus familiaris, oral, apomorphine hydrochloride 0.1 mg/kg s.c.
Method: 3. APOMORPHINE EMESIS ASSAY
Method: Dogs, unsegregated with respect to breed or sex, are used. They are fasted for 16 hours prior to the administration of the test compound. The test compounds are given orally by stomach tube at intervals prior to a subcutaneous injection of 0.1 mg/kg of apomorphine hydrochloride. The dogs are observed for changes in behavior or signs of neuropharmacologic action during the period between drugs and the emetic. After the apomorphine injection the frequency of vomiting episodes is recorded.
The number of dogs vomiting per total number tested, the number of vomiting episodes for each dog, and the average number of episodes are reported for dogs treated with the test compound and dogs treated with vehicle.
The drug is rated as being active if no vomiting episodes are seen in 50 percent or more of the dogs tested.

Dopamine D2 receptor = Dopamine D2 receptor (Rattus norvegicus, UniProt P61169); experiment: Affinity for dopamine D2 receptors in rat brain membranes; type: binding
[3] = molecular target: Muscarinic Cholinergic receptor; experiment: Affinity for muscarinic cholinergic receptors in rat brain membranes; type: binding
Method: This test uses the displacement of [^3 H] quinuclidinyl benzilate ([^3 H]QNB) from specific muscarinic cholinergic receptors in the rat brain to measure in vitro anticholinergic activity of compounds. […]. A Long-Evans male rat weighing 180-200 grams is routinely used. The brain tissue homogenate along with appropriate concentrations of test compounds and [^3 H]QNB is incubated for one hour at 25° C. in a buffer medium of 50 mM Na-K PO4 pH 7.4. The material is filtered and washed on a millipore filter using Whatman GF/B filters. The filters are counted on a scintillation spectrophotometer. A maximal displacement by 0.1 mM oxotremorine is used to determine how much of the total binding is specific for muscarinic receptors.
Results: The results are reported as percent inhibition of total specific binding. Reference: Yamamura, Henry L. and Snyder, Solomon H. (1974). Muscarinic Cholinergic Binding in Rat Brain Proc. Nat. Acad. Sci. USA Vol 71 No. 5 pp. 1725-1729 May 1974.
(§1) for Dopamine D2, Muscarinic, and
(§2) Histamine H1 Receptors in Rat Brain Membranes

Histamine H1 receptor = molecular target: T1, Histamine H1 receptor (Rattus norvegicus, UniProt P31390); experiment: Affinity for histamine H1 receptors in rat brain membranes; type: binding
T1 construct: Histamine H1 Receptors in Rat Brain Membranes; from tissue; host or cells: rat brain membranes
Text: as §1, §2
*Tran V. T., Lebovitz, R., Toll, L., and Snyder, S. H.: [^3 H]Doxepin
interactions with histamine H1 -receptors in guinea pig and rat brai

[4] = rat brain membranes, read-out: Receptor Ki, Histamine H1

T1 sequence (P31390 whole entry): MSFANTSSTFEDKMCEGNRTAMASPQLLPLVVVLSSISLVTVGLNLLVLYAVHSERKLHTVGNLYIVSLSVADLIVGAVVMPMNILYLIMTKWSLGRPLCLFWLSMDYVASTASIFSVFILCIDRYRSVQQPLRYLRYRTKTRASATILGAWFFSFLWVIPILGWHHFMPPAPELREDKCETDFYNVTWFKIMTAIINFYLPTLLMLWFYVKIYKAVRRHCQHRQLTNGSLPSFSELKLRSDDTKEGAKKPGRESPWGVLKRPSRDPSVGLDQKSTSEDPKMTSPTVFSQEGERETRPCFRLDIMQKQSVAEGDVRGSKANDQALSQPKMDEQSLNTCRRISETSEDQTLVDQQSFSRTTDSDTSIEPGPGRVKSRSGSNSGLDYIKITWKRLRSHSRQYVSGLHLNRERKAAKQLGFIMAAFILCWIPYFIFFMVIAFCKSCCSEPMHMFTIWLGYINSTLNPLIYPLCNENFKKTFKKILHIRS
Dopamine D2 receptor, sequence (P61169 whole entry): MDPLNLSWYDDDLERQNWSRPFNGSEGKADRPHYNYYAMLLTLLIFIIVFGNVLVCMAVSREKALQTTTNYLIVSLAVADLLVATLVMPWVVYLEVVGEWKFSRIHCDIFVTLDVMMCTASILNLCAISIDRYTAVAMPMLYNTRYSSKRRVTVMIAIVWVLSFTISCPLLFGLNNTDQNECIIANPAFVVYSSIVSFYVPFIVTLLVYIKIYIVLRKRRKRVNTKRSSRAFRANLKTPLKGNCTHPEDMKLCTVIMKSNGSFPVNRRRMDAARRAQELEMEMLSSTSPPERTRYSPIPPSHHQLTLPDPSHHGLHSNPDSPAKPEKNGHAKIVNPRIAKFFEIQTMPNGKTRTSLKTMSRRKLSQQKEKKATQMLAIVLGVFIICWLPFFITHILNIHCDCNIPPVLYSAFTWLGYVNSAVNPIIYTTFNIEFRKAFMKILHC

Structure (SMILES) | Ki (Dopamine D2 receptor) [nM] | Ki [3] [nM] | Ki (Histamine H1 receptor; [4]) [nM] | MRBA percent inhibition of total specific binding [1] [%] | HRBA percent inhibition (brain dopamine receptors) [%] | further results
c1ccc(C(=C2CCN(CCN3CCCC3)CC2)c2ccccc2)cc1 [Compound 2, Piperidine, 4-(diphenylmethylene)-1-[2-(1-pyrrolidinyl)ethyl]-,dihydrochloride] |  |  |  |  |  | IC50 [1]: 8.4 nM; IC50 (brain dopamine receptors; unit inferred): 309 nM
c1ccc(C(=C2CCN(CCN3CCOCC3)CC2)c2ccccc2)cc1 [Compound 1, Morpholine, 4-[2-[4-(diphenylmethylene)-1-piperidinyl]ethyl], dihydrochloride] | 31 | 32 | 20 |  |  | IC50 [1]: 148 nM; IC50 (brain dopamine receptors): 29 nM; ED50 [2]: ~5 mg/kg
CN1CCCC1CCN1CCC(=C(c2ccccc2)c2ccccc2)CC1 (stereo not drawn) [Compound 5, Piperidine, 4-(diphenylmethylene)-1-[2-(1-methyl-2-pyrrolidinyl)ethyl]-, dihydrochloride, hemihydrate] |  |  |  |  |  | IC50 [1]: 19.9 nM; IC50 (brain dopamine receptors; unit inferred): 72.7 nM
OC1CCN(CCCN2CCC(=C(c3ccccc3)c3ccccc3)CC2)CC1 [Compound 12, 4-Piperidinol, 1-[3-[4-(diphenylmethylene)-1-piperidinyl]propyl]-,dihydro-chloride, hemihydrate] | 25 | 15 | 6.1 | 63 | 89 | 
Fc1cccc(C(=C2CCN(CCCN3CCCCC3)CC2)c2cccc(F)c2)c1 [Compound 17, dihydrochloride] |  |  |  | 32 |  | 
O=C(CCN1CCC(=C(c2ccccc2)c2ccccc2)CC1)N1CCC(O)(O)CC1 [Compound 11, 4,4-Piperidinediol, 1-[3-[4-(diphenylmethylene)-1-piperidinyl]-1-oxopropyl]] |  |  |  |  |  | IC50 [1]: 38.3 nM; IC50 (brain dopamine receptors): 367 nM
CC1(C)CC(=O)C=C(NCCN2CCC(=C(c3ccccc3)c3ccccc3)CC2)C1 [Compound 9, 2-Cyclohexen-1-one, 3-[[2-[4-(diphenylmethylene)-1-piperidinyl]ethyl]amino]-5,5-dimethyl] | 75 | 11 | 56 | 73 | 63 | 
CSC(=NC#N)NCCCN1CCC(=C(c2ccccc2)c2ccccc2)CC1 [Compound 21, Carbamimidothioic acid, N'-cyano-N-[3-[4-(diphenylmethylene)-1-piperidinyl]-propyl]-, methyl ester] | 32 | 8.6 | 0.38 |  |  | IC50 [1]: 64.7 nM; IC50 (brain dopamine receptors): 39.2 nM
N#CN=C(NCCCN1CCC(=C(c2ccccc2)c2ccccc2)CC1)N1CCCCC1 [Compound 23, 1-Piperidinecarboximidamine, N'-cyano-N-[3-[4-diphenylmethylene]-1-piperidinyl]propyl] | 28 | 2 | 1.7 | 86 | 55 | 
c1ccc(C(=C2CCN(CCN3CCCCC3)CC2)c2ccccc2)cc1 [Compound 3, Piperidine, 4-(diphenylmethylene)-1-[2-(1-piperidinyl)ethyl]-, dihydrochloride, hydrate (4:1)] | 105 | 3 | 12 |  |  | IC50 [1]: 18.1 nM; IC50 (brain dopamine receptors): 135 nM
Fc1cccc(C(=C2CCN(CCCN3CCCCC3)CC2)c2ccccc2)c1 [Compound 19, Piperidine, 4-[(3-fluorophenyl)phenylmethylene]-1-[3-(1-piperidinyl)propyl]-, dihydrochloride] |  |  |  | 45 | 36 | 
Cl.Cl.O.c1ccc(C(=C2CCN(CCCN3CCCc4ccccc43)CC2)c2ccccc2)cc1 [Compound 10, Quinoline, 1-[3-[4-(diphenylmethylene]-1-piperidinyl]propyl]-1,2,3,4-tetrahydro-, dihydrochloride, monohydrate] |  |  |  | 83 | 69 | 
c1ccc(C(=C2CCN(CCCN3CCCCC3)CC2)c2ccccc2)cc1 [Compound 4, Piperidine, 4-(diphenylmethylene)-1-[3-(1-piperidinyl)propyl]-,dihydrochloride, hemihydrate] |  |  |  |  |  | IC50 [1]: 15 nM; IC50 (brain dopamine receptors): 50.4 nM
Cl.Cl.c1ccc(C(=C2CCN(CCCCN3CCCCC3)CC2)c2ccccc2)cc1 [Compound 6, Piperidine, 4-(diphenylmethylene)-1-[4-[1-piperidinyl]butyl]-, dihydrochloride] |  |  |  | 83 |  | 
c1ccc(C(=C2CCN(CCCN3CCCc4ccccc43)CC2)c2ccccc2)cc1 | 42 | 11 | 31 |  |  | 
O=C(CCN1CCC(=C(c2ccccc2)c2ccccc2)CC1)N1CC=C(Oc2ccc(F)cc2)CC1 [Compound 8, pyridine, 1-[3-[4-(diphenylmethylene-1-piperidinyl]-1-oxopropyl]-4-(fluorophenoxy)-1,2,3,6-tetrahydro-, 2-hydroxy-1,2,3-propane tricarboxylate(1:1), dihydrate] |  |  |  | 64 |  | 
Cl.Cl.Fc1ccc(C(=C2CCN(CCN3CCCCC3)CC2)c2ccc(F)cc2)cc1 [Compound 15, Piperidine, 4-[bis-(4-fluorophenyl)-methylene]-1-[2-(1-piperidinyl)ethyl]-, dihydrochloride] | 56 | 17 |  | 67 | 62 | Ki (Histamine H1 receptor): 86 nM
CN1CCCC1CCN1CCC(=C(c2ccc(F)cc2)c2ccc(F)cc2)CC1 (stereo not drawn) [Compound 16, Piperidine, 4-[bis-(4-fluorophenyl)-methylene]-1-[2-(1-methyl-2-pyrrolidinyl)ethyl]-, (E)-2-butanedioate (1:2)] |  |  |  | 36 | 48 | 
O=C(CCN1CCC(=C(c2ccccc2)c2ccccc2)CC1)N1CCCc2ccccc21 [Compound 7] |  |  |  | 52 |  | 
Fc1ccc(C(=C2CCN(CCCN3CCCCC3)CC2)c2ccc(F)cc2)cc1 [Compound 14, Piperidine, 1-[3-(1-piperidinyl)propyl]-4-[bis-(4-fluorophenyl)-methylene]-, dihydrochloride, hydrate (2:1)] | 67 | 23 | 16 | 57 | 73 | 
CNC(=NC#N)NCCCN1CCC(=C(c2ccccc2)c2ccccc2)CC1 [Compound 22, Guanidine, N'-cyano-N-[3-[4-(diphenylmethylene)-1-piperidinyl]propyl]-N'-methyl] |  |  |  | 42 | 73 | 
Cl.Cl.Clc1cccc(C(=C2CCN(CCCN3CCCCC3)CC2)c2ccccc2)c1 [Compound 18, Piperidine, 4-[(3-chlorophenyl)phenylmethylene]-1-[3-(1-piperidinyl)propyl]-, dihydrochloride] |  |  |  | 37 | 52 | 
OCCC1CCN(CCCN2CCC(=C(c3ccccc3)c3ccccc3)CC2)CC1 [Compound 13, 4-Piperidineethanol, 1-[3-[4-(diphenylmethylene)-1-piperidinyl]propyl]-,dihydrochloride, monohydrate] | 158 | 5 | 19.5 | 83 | 55 | 
O=C(CCCN1CCCCC1)N1CCC(=C(c2ccccc2)c2ccccc2)CC1 [Compound 20, Piperidine, 4-(diphenylmethylene)-1-[1-oxo-4-(1-piperidinyl)butyl]-] |  |  |  | 54 |  | 
